In patent publication US7563793B2, “Pyrrolo[1,2-a]quinoxalin-5-(4H)-yl)sulfonyls and carbonyls and their use as estrogenic agents” (Wyeth, priority 2004, dated 2009):
Read-outs that look alike come from different tables or passages of the source.

Assays:
IL-6 = IL-6 assay (ELISA) in Ad5-wt-ER infected HAECT-1 cells (IL-1β induced); format: cell-based, human; conditions: for Emax: HAECT1, relative to maximal inhibition observed with E2, read-out: IL-6 Efficacy; for IL-6 Efficacy: relative to maximal inhibition observed with E2
Method: (§1) After four hours, cells were washed with EBM-BSA and incubated overnight in the same medium. […] After two hours, cells were washed and incubated at 34° C. for 1 hour. […] Control (no ER infection) cells were processed as above without Ad5-wt-hERα virus infection. […] Cells were subsequently washed with 300 μl of Dulbecco's phosphate buffered saline and lysed in 50 μl of Cell Culture Lysis Reagent (Promega). Luciferase was determined on a Wallac Victor^2 Luminometer (Gaithersburg, Md.) using 10 μl of lysate and mixing with 100 lμof Promega Luciferase Assay reagent. […] For IC50 and EC50 calculations, mean IL-6, luciferase or CK values versus log10 of the compound concentration were fitted to a four parameter logistic equation. The IC50/EC50 value, ‘Hill slope’, upper and lower limits of the curve were iteratively estimated.

creatine kinase = assay: Creatine kinase assay in Ad5-wt-ER infected HAECT-1 cells; format: cell-based, human; conditions: for EC50 / Emax: Homo sapiens; for EC50: HAECT1, CK stimulation, N/O = activity not observed at concentrations tested, read-out: CK IC50; for Emax: HAECT1, relative to maximal stimulation observed with E2, read-out: CK Efficacy; for CK Efficacy: relative to maximal stimulation observed with E2
Method: as §1

Compound	IC50 (IL-6; Homo sapiens, HAECT1) [nM]	EC50 (creatine kinase) [nM]	Emax (IL-6; Homo sapiens) [%]	Emax (creatine kinase) [%]	CK Efficacy (creatine kinase) [%]	IC50 (IL-6) [nM]	IL-6 Efficacy (IL-6) [%]
C[C@H]1c2cccn2-c2ccc(Br)cc2N1C(=O)c1cccc(O)c1 [107 (S), 3-{[(4S)-7-bromo-4-methylpyrrolo[1,2-a]quinoxalin-5(4H)-yl]carbonyl}phenol]	1060		66				
CC[C@@H]1c2cccn2-c2ccc(Br)cc2N1C(=O)c1ccc(O)cc1 [111 (R), 4-{[(4R)-7-bromo-4-ethylpyrrolo[1,2-a]quinoxalin-5(4H)-yl]carbonyl}phenol]	46	117	87	40			
CC[C@H]1c2cccn2-c2ccc(Br)cc2N1C(=O)c1ccc(O)cc1 [111 (S), 4-{[(4S)-7-bromo-4-ethylpyrrolo[1,2-a]quinoxalin-5(4H)-yl]carbonyl}phenol]	1090		65				
CC[C@@H]1c2cccn2-c2ccc(F)cc2N1C(=O)c1ccc(O)cc1 [119 (R), 4-{[(4R)-4-ethyl-7-fluoropyrrolo[1,2-a]quinoxalin-5(4H)-yl]carbonyl}phenol]	8	11	95	27			
CC[C@H]1c2cccn2-c2ccc(F)cc2N1C(=O)c1ccc(O)cc1 [119 (S), 4-{[(4S)-4-ethyl-7-fluoropyrrolo[1,2-a]quinoxalin-5(4H)-yl]carbonyl}phenol]	101		79				
CC[C@@H]1c2cccn2-c2ccc(F)cc2N1C(=O)c1ccc(O)cc1O [121 (R), 4-{[(4R)-4-ethyl-7-fluoropyrrolo[1,2-a]quinoxalin-5(4H)-yl]carbonyl}benzene-1,3-diol]	1.6	13	108	36			
CC[C@H]1c2cccn2-c2ccc(F)cc2N1C(=O)c1ccc(O)cc1O [121 (S), 4-{[(4S)-4-ethyl-7-fluoropyrrolo[1,2-a]quinoxalin-5(4H)-yl]carbonyl}benzene-1,3-diol]	72	64	95	32			
C[C@@H]1c2cccn2-c2ccc(F)cc2N1C(=O)c1cccc(O)c1 [131 (R), 3-{[(4R)-4-methyl-7-fluoropyrrolo[1,2-a]quinoxalin-5(4H)-yl]carbonyl}phenol]	179		103				
C[C@H]1c2cccn2-c2ccc(F)cc2N1C(=O)c1cccc(O)c1 [131 (S), 3-{[(4S)-4-methyl-7-fluoropyrrolo[1,2-a]quinoxalin-5(4H)-yl]carbonyl}phenol]	1460		69				
CCC1c2ccc(F)n2-c2ccc(F)cc2N1S(=O)(=O)c1ccc(O)cc1 (stereo not shown) [Example 23, 4-[(4-ethyl-1,7-difluoropyrrolo[1,2-a]quinoxalin-5-(4H)-yl)sulfonyl]phenol]					52	6.6	162
CCC1c2cccn2-c2cc(F)c(F)cc2N1S(=O)(=O)c1ccc(OS(N)(=O)=O)cc1 (stereo not shown) [Example 105, 4-{4-ethyl-7,8-difluoropyrrolo[1,2-a]quinoxalin-5(4H)-yl]sulfonyl}phenyl sulfamate]					49	2	116
CC1c2cccn2-c2ccc(Br)cc2N1C(=O)c1ccc(O)cc1 (stereo not shown) [Example 108, 4-[(7-bromo-4-methylpyrrolo[1,2-a]quinoxalin-5(4H)-yl)carbonyl]phenol]	53	18	118	7			
CC1c2cccn2-c2ccc(Br)cc2N1C(=O)c1ccc(O)cc1O (stereo not shown) [Example 109, 4-[(7-bromo-4-methylpyrrolo[1,2-a]quinoxalin-5(4H)-yl)carbonyl]benzene-1,3-diol]	42	398	128	40			
CC(C)(C)C1c2cccn2-c2ccc(Br)cc2N1C(=O)c1cccc(O)c1 (stereo not shown) [Example 114, 3-[(7-bromo-4-tert-butylpyrrolo[1,2-a]quinoxalin-5(4H)-yl)carbonyl]phenol]	441		38				
CC(C)(C)C1c2cccn2-c2ccc(Br)cc2N1C(=O)c1ccc(O)cc1O (stereo not shown) [Example 117, 4-[(7-bromo-4-tert-butylpyrrolo[1,2-a]quinoxalin-5(4H)-yl)carbonyl]benzene-1,3-diol]	9	33	90	42			
CC[C@@H]1c2ccc(C#N)n2-c2ccc(F)cc2N1C(=O)c1ccc(O)cc1 [Example 128, (4R)-4-ethyl-7-fluoro-5-(4-hydroxybenzoyl)-4,5-dihydropyrrolo[1,2-a]quinoxaline-1-carbonitrile]	64		111				

The next lines start with results.

IC50 (IL-6; Homo sapiens, HAECT1) [nM]	EC50 (creatine kinase) [nM]	Compound	Emax (IL-6; Homo sapiens) [%]	Emax (creatine kinase) [%]	CK Efficacy (creatine kinase) [%]	IC50 (IL-6) [nM]	IL-6 Efficacy (IL-6) [%]
647		CC(C)(C)[C@@H]1c2cccn2-c2ccc(Br)cc2N1C(=O)c1cccc(O)c1 [115 (R), 3-{[(4R)-7-bromo-4-tert-butylpyrrolo[1,2-a]quinoxalin-5(4H)-yl]carbonyl}phenol]	82				
455		CC(C)(C)[C@H]1c2cccn2-c2ccc(Br)cc2N1C(=O)c1cccc(O)c1 [115 (S), 3-{[(4S)-7-bromo-4-tert-butylpyrrolo[1,2-a]quinoxalin-5(4H)-yl]carbonyl}phenol]	94				
606		C[C@H]1c2cccn2-c2ccc(F)cc2N1C(=O)c1ccc(O)cc1 [123 (S), 4-{[(4S)-7-fluoro-4-methylpyrrolo[1,2-a]quinoxalin-5(4H)-yl]carbonyl}phenol]	47				
1100	68	CC[C@H]1c2cccn2-c2ccc(Cl)cc2N1C(=O)c1ccc(O)cc1O [125 (S), 4-{[(4S)-7-chloro-4-ethylpyrrolo[1,2-a]quinoxalin-5(4H)-yl]carbonyl}benzene-1,3-diol]	81	15			
1330	33	CC[C@H]1c2cccn2-c2ccc(F)cc2N1C(=O)c1cccc(O)c1 [127 (S), 3-{[(4S)-4-ethyl-7-fluoropyrrolo[1,2-a]quinoxalin-5(4H)-yl]carbonyl}phenol]	41	33			
10		CC1c2cccn2-c2ccc(Br)cc2N1C(=O)c1cccc(O)c1 (stereo not shown) [Example 106, 3-[(7-bromo-4-methylpyrrolo[1,2-a]quinoxalin-5(4H)-yl)carbonyl]phenol]	54				
369		CCC1c2cccn2-c2ccc(Br)cc2N1C(=O)c1ccc(O)cc1 (stereo not shown) [Example 110, 4-[(7-bromo-4-ethylpyrrolo[1,2-a]quinoxalin-5(4H)-yl)carbonyl]phenol]	78				
152	207	CCC1c2cccn2-c2ccc(Br)cc2N1C(=O)c1cccc(O)c1 (stereo not shown) [Example 112, 3-[(7-bromo-4-ethylpyrrolo[1,2-a]quinoxalin-5(4H)-yl)carbonyl]phenol]	88	21			
9.5	25	CCC1c2cccn2-c2ccc(Br)cc2N1C(=O)c1ccc(O)cc1O (stereo not shown) [Example 113, 4-[(7-bromo-4-ethylpyrrolo[1,2-a]quinoxalin-5(4H)-yl)carbonyl]benzene-1,3-diol]	101	28			
207		CC(C)(C)C1c2cccn2-c2ccc(Br)cc2N1C(=O)c1ccc(O)cc1 (stereo not shown) [Example 116, 4-[(7-bromo-4-tert-butylpyrrolo[1,2-a]quinoxalin-5(4H)-yl)carbonyl]phenol]	90				
